Starred links: 1 amine or outer side, 2 acyl side, 3 side chain; linkers in the order of their positions; H or OH if unused. Positions of bridges follow the written chain, without caps; N, C: chain ends. Non-standard residues stand in square brackets, D forms with d. Residues, ends and D or L forms follow the SMILES beside them. *: point of attachment. NH(CH2)3NH(O2Oc(DOTA)) = O=C(O)CN1CCN(CC(=O)O)CCN(CC(=O)NCCOCCOCC(=O)NCCCN*)CCN(CC(=O)O)CC1; NH(1-deoxy-D-glucityl) = OC[C@@H](O)[C@@H](O)[C@H](O)[C@@H](O)CN*; DOTA = O=C(O)CN1CCN(CC(=O)O)CCN(CC(=O)*)CCN(CC(=O)O)CC1; Phe(4-NH2) = Nc1ccc(C[C@H](N)C(=O)O)cc1; Cyclopentanecarbonyl = O=C(C1CCCC1)*; mXylylene = c1cc(C[*:1])cc(C[*:2])c1; Bta = N[C@@H](Cc1csc2ccccc12)C(=O)O; NMeY = CN[C@@H](Cc1ccc(O)cc1)C(=O)O; Orn(Me2) = CN(C)CCC[C@H](N)C(=O)O; X2 = O=C(CN1CCC(N[*:1])CC1)[*:2]; X53 = Cc1cc2cc(CN*)ccc2[nH]c1=O; Isovaleryl = CC(C)CC(=O)*; Orn = NCCC[C@H](N)C(=O)O; Thp = NC1(C(=O)O)CCOCC1; Aib = CC(C)(N)C(=O)O; Sar = CNCC(=O)O
Molecular target: T1, CAIX-expressing human HT-29 colorectal cancer cells (Homo sapiens, UniProt Q16790)
T1 construct: CAIX-expressing human HT-29 colorectal cancer cells; host or cells: HT-29 human colorectal cancer cells
Assay: FACS binding assay (IC50 determination, competition with tracer 3BP-2776 or 3BP-4149)
Settings: FACS binding assay, HT-29 cells, competition with tracer 3BP-2776 (10 nM, biotin-labeled), 4° C., 1 hour; read-out: pIC50 category (activity) (converted)
Procedure: In order to determine binding of compounds according to the present invention to CAIX-expressing cells, a FACS binding assay was established.
CAIX-expressing human HT-29 colorectal cancer cells (DSMZ, RRID: CVCL_0320) were cultured in McCoys's 5A modified medium (Biochrom, #F1015) including 10% fetal calf serum (FCS), 2 mM L-glutamine, 100 U/ml penicillin and 100 μg/mL streptomycin. Cells were detached with Accutase (Biolegend, #423201) and washed in FACS buffer (PBS including 1% FCS). Cells were diluted in FACS buffer to a final concentration of 500.000 cells per ml. 200 μL of the cell suspension were transferred to a u-shaped non-binding 96-well plate (Greiner) and cells were washed in ice-cold FACS buffer.
When biotinylated compounds were used an additional incubation step with 1 μg/mL APC-Streptavidin (Miltenyi; #130-106-791) in 50 μL FACS buffer for 30 minutes on ice was performed.
Cells were washed twice with ice-cold FACS buffer and analyzed in an Attune NxT flow cytometer (Thermo Fisher). Median fluorescence intensities (MFI) of the APC/Cy5-channel were calculated by Attune NxT software. MFI values were plotted against peptide concentration and four parameter logistic (4PL) curve fitting and EC50/pEC50 or IC50/pIC50 calculations were performed using ActivityBase software.

Row | Structure (SMILES) | IC50
1 | CC(C)C[C@@H]1NC(=O)[C@H](Cc2c[nH]c3ccccc23)NC(=O)[C@H](CCC(=O)NC[C@H](O)[C@@H](O)[C@H](O)[C@H](O)CO)NC(=O)[C@H]2CCCN2C(=O)[C@H](CCC(=O)O)NC(=O)[C@@H](NC(=O)[C@H](Cc2ccc(O)cc2)NC(=O)[C@@H](NC(=O)CN2CCC(NC(=O)CN3CCN(CC(=O)O)CCN(CC(=O)O)CCN(CC(=O)O)CC3)CC2)C(C)C)CSCc2cccc(c2)CSC[C@@H](C(N)=O)NC(=O)[C@H](CO)NC(=O)[C@H](Cc2c[nH]c3ccccc23)NC(=O)[C@H]([C@@H](C)O)NC1=O [3BP-4120, DOTA-APAc-Val-Tyr-[Cys(3MeBn)-Glu-pro-Glu(AGLU)-Trp-Leu-Thr-Trp-Ser-Cys]-NH2] ({DOTA}-[X2]VYCE[dP]E(NH(1-deoxy-D-glucityl))WLTWSC-NH2; linker 4-13 via mXylylene) | 10 to 79.4 nM
2 | CC(C)C[C@@H]1NC(=O)[C@H](Cc2c[nH]c3ccccc23)NC(=O)[C@H](CC(=O)O)NC(=O)[C@H]2CCCN2C(=O)[C@H](CCC(=O)O)NC(=O)[C@@H](NC(=O)[C@H](Cc2ccc(O)cc2)NC(=O)[C@@H](NC(=O)CN2CCC(NC(=O)CN3CCN(CC(=O)O)CCN(CC(=O)O)CCN(CC(=O)O)CC3)CC2)C(C)C)CSCc2cccc(c2)CSC[C@@H](C(N)=O)NC(=O)[C@H](CO)NC(=O)[C@H](Cc2c[nH]c3ccccc23)NC(=O)[C@H](CCCN(C)C)NC1=O [3BP-4099] ({DOTA}-[X2]VYCE[dP]DWL[Orn(Me2)]WSC-NH2; linker 4-13 via mXylylene) | < 10 nM
3 | CC(=O)N[C@H](C(=O)N[C@@H](Cc1ccc(O)cc1)C(=O)N[C@H]1CSCc2cccc(c2)CSC[C@@H](C(N)=O)NC(=O)[C@H](CO)NC(=O)[C@H](Cc2c[nH]c3ccccc23)NC(=O)[C@@H]2CCC(=O)NCCC[C@H](NC(=O)[C@H]3CCCN3C(=O)[C@H](CCC(=O)O)NC1=O)C(=O)N[C@@H](Cc1c[nH]c3ccccc13)C(=O)N[C@@H](CC(C)C)C(=O)N2)C(C)C [3BP-3958] (Ac-VYCE[dP][Orn]WLEWSC-NH2; linker 3-12 via mXylylene; lactam 6-9) | 10 to 79.4 nM
4 | CC(C)C[C@@H]1NC(=O)[C@H](Cc2ccc(NC(=O)C3CCCC3)cc2)NC(=O)[C@H](CC(=O)O)NC(=O)[C@H]2CCCN2C(=O)[C@H](CCC(=O)O)NC(=O)[C@@H](NC(=O)[C@H](Cc2ccc(O)cc2)NC(=O)[C@@H](NC(=O)CN2CCC(NC(=O)CN3CCN(CC(=O)O)CCN(CC(=O)O)CCN(CC(=O)O)CC3)CC2)C(C)C)CSCc2cccc(c2)CSC[C@@H](C(N)=O)NC(=O)[C@H](CO)NC(=O)[C@H](Cc2c[nH]c3ccccc23)NC(=O)[C@H]([C@@H](C)O)NC1=O [3BP-4173] ({DOTA}-[X2]VYCE[dP]D[Phe(4-NH2)](Cyclopentanecarbonyl)LTWSC-NH2; linker 4-13 via mXylylene) | 10 to 79.4 nM
5 | CC(=O)N[C@H](C(=O)N[C@@H](Cc1ccc(O)cc1)C(=O)N[C@H]1CSCc2cccc(c2)CSC[C@@H](C(N)=O)NC(=O)[C@H](CO)NC(=O)[C@H](Cc2c[nH]c3ccccc23)NC(=O)[C@@H]2CC(=O)NCCCC[C@H](NC(=O)[C@H]3CCCN3C(=O)[C@H](CCC(=O)O)NC1=O)C(=O)N[C@@H](Cc1c[nH]c3ccccc13)C(=O)N[C@@H](CC(C)C)C(=O)N2)C(C)C [3BP-4046] (Ac-VYCE[dP]KWLDWSC-NH2; linker 3-12 via mXylylene; lactam 6-9) | 10 to 79.4 nM

Same assay, conditions: FACS binding assay, HT-29 cells, competition with tracer 3BP-4149 (3 nM, Cy5-labeled), 4° C., 1 hour; read-out: pIC50 category (activity) (converted)

Row | Structure (SMILES) | IC50
6 | Cc1cc2cc(CNC(=O)CC[C@@H]3NC(=O)[C@H]4CCCN4C(=O)[C@H](CCC(=O)O)NC(=O)[C@@H](NC(=O)[C@H](Cc4ccc(O)cc4)NC(=O)[C@@H](NC(=O)CN4CCC(NC(=O)CN5CCN(CC(=O)O)CCN(CC(=O)O)CCN(CC(=O)O)CC5)CC4)C(C)C)CSCc4cccc(c4)CSC[C@@H](C(N)=O)NC(=O)[C@H](CO)NC(=O)[C@H](Cc4c[nH]c5ccccc45)NC(=O)[C@H]([C@@H](C)O)NC(=O)[C@H](CC(C)C)NC(=O)[C@H](Cc4c[nH]c5ccccc45)NC3=O)ccc2[nH]c1=O [3BP-4390] ({DOTA}-[X2]VYCE[dP]E(X53)WLTWSC-NH2; linker 4-13 via mXylylene) | 10 to 79.4 nM

Same assay, conditions: FACS competition on HT-29 cells, Tracer ID 3BP-2776 (10 nM, biotin-labeled), 4° C., 1 hour; read-out: pIC50 category (activity) (converted)

Row | Structure (SMILES) | IC50
7 | CC(C)CC(=O)N[C@@H](Cc1ccc(O)cc1)C(=O)N[C@H]1CSCc2cccc(c2)CSC[C@@H](C(N)=O)NC(=O)[C@H](CO)NC(=O)[C@H](Cc2c[nH]c3ccccc23)NC(=O)[C@H]([C@@H](C)O)NC(=O)[C@H](CC(C)C)NC(=O)[C@H](Cc2c[nH]c3ccccc23)NC(=O)[C@H](CC(=O)O)NC(=O)[C@H]2CCCN2C(=O)[C@H](CCC(=O)O)NC1=O [3BP-3569] (Isovaleryl-YCE[dP]DWLTWSC-NH2; linker 2-11 via mXylylene) | < 10 nM
8 | CC(C)[C@H](NC(=O)CN1CCC(NC(=O)CN2CCN(CC(=O)O)CCN(CC(=O)O)CCN(CC(=O)O)CC2)CC1)C(=O)N[C@@H](Cc1ccc(O)cc1)C(=O)N[C@H]1CSCc2cccc(c2)CSC[C@@H](C(N)=O)NC(=O)[C@H](CO)NC(=O)[C@H](Cc2c[nH]c3ccccc23)NC(=O)[C@H]([C@@H](C)O)NC(=O)C2(CCOCC2)NC(=O)[C@H](Cc2c[nH]c3ccccc23)NC(=O)[C@H](CC(=O)O)NC(=O)[C@H]2CCCN2C(=O)[C@H](CCC(=O)O)NC1=O [3BP-3585] ({DOTA}-[X2]VYCE[dP]DW[Thp]TWSC-NH2; linker 4-13 via mXylylene) | < 10 nM
9 | CC(=O)N[C@H]1CSCc2cccc(c2)CSC[C@@H](C(N)=O)NC(=O)[C@H](CCC(N)=O)NC(=O)[C@H](Cc2c[nH]c3ccccc23)NC(=O)[C@H]([C@@H](C)O)NC(=O)[C@H](CC(C)C)NC(=O)[C@H](Cc2c[nH]c3ccccc23)NC(=O)[C@H](CC(=O)O)NC(=O)CN(C)C(=O)[C@H](CCC(=O)O)NC1=O [3BP-3325] (Ac-CE[Sar]DWLTWQC-NH2; linker 1-10 via mXylylene) | 100 to 794 nM
10 | CC(=O)N[C@H](C(=O)N[C@@H](Cc1ccc(O)cc1)C(=O)N[C@H]1CSCc2cccc(c2)CSC[C@@H](C(N)=O)NC(=O)CNC(=O)[C@H](Cc2c[nH]c3ccccc23)NC(=O)[C@H]([C@@H](C)O)NC(=O)[C@H](CC(C)C)NC(=O)[C@H](Cc2c[nH]c3ccccc23)NC(=O)[C@H](CC(=O)O)NC(=O)[C@@H](C)NC(=O)[C@H](CCC(=O)O)NC1=O)C(C)C [3BP-3284] (Ac-VYCE[dA]DWLTWGC-NH2; linker 3-12 via mXylylene) | < 10 nM
11 | CC(=O)N[C@H](C(=O)N[C@@H](Cc1ccc(O)cc1)C(=O)N[C@H]1CSCc2cccc(c2)CSC[C@@H](C(N)=O)NC(=O)[C@H](CCC(N)=O)NC(=O)[C@H](Cc2csc3ccccc23)NC(=O)[C@H]([C@@H](C)O)NC(=O)[C@H](CC(C)C)NC(=O)[C@H](Cc2c[nH]c3ccccc23)NC(=O)[C@H](CC(=O)O)NC(=O)CN(C)C(=O)[C@H](CCC(=O)O)NC1=O)C(C)C [3BP-3315] (Ac-VYCE[Sar]DWLT[Bta]QC-NH2; linker 3-12 via mXylylene) | 100 to 794 nM
12 | CC(=O)N[C@H](C(=O)N(C)[C@@H](Cc1ccc(O)cc1)C(=O)N[C@H]1CSCc2cccc(c2)CSC[C@@H](C(N)=O)NC(=O)[C@H](CO)NC(=O)[C@H](Cc2c[nH]c3ccccc23)NC(=O)[C@H]([C@@H](C)O)NC(=O)[C@H](CC(C)C)NC(=O)[C@H](Cc2c[nH]c3ccccc23)NC(=O)[C@H](CC(=O)O)NC(=O)[C@H]2CCCN2C(=O)[C@H](CCC(=O)O)NC1=O)C(C)C [3BP-3589] (Ac-V[NMeY]CE[dP]DWLTWSC-NH2; linker 3-12 via mXylylene) | < 10 nM
13 | CC(=O)N[C@H](C(=O)N[C@@H](Cc1ccccc1)C(=O)N[C@H]1CSCc2cccc(c2)CSC[C@@H](C(N)=O)NC(=O)[C@H](CCC(=O)NCCCNC(=O)COCCOCCNC(=O)CN2CCN(CC(=O)O)CCN(CC(=O)O)CCN(CC(=O)O)CC2)NC(=O)[C@H](Cc2c[nH]c3ccccc23)NC(=O)[C@H]([C@@H](C)O)NC(=O)[C@H](CC(C)C)NC(=O)[C@H](Cc2c[nH]c3ccccc23)NC(=O)[C@H](CC(=O)O)NC(=O)[C@H]2CCCN2C(=O)[C@H](CCC(=O)O)NC1=O)C(C)C [3BP-3733] (Ac-VFCE[dP]DWLTWE(NH(CH2)3NH(O2Oc(DOTA)))C-NH2; linker 3-12 via mXylylene) | < 10 nM
14 | CC(=O)N[C@H](C(=O)N[C@@H](Cc1ccc(O)cc1)C(=O)N[C@H]1CSCc2cccc(c2)CSC[C@@H](C(N)=O)NC(=O)[C@H](C)NC(=O)[C@H](Cc2c[nH]c3ccccc23)NC(=O)[C@H]([C@@H](C)O)NC(=O)C(C)(C)NC(=O)[C@H](Cc2c[nH]c3ccccc23)NC(=O)[C@H](CC(=O)O)NC(=O)[C@H]2CCCN2C(=O)[C@H](CCC(=O)O)NC1=O)C(C)C [3BP-3502] (Ac-VYCE[dP]DW[Aib]TWAC-NH2; linker 3-12 via mXylylene) | 10 to 79.4 nM
15 | CC(=O)N[C@H](C(=O)N[C@@H](Cc1ccc(O)cc1)C(=O)N[C@H]1CSCc2cccc(c2)CSC[C@@H](C(N)=O)NC(=O)[C@H](CCC(N)=O)NC(=O)[C@H](Cc2c[nH]c3ccccc23)NC(=O)[C@H]([C@@H](C)O)NC(=O)[C@H](CC(C)C)NC(=O)[C@H](Cc2c[nH]c3ccccc23)NC(=O)[C@H](CC(=O)O)NC(=O)CN(C)C(=O)[C@H](CCC(=O)O)NC1=O)C(C)C [3BP-3060] (Ac-VYCE[Sar]DWLTWQC-NH2; linker 3-12 via mXylylene) | < 10 nM
